One assay has as its target T1, AChE from electric eel (Electrophorus electricus, UniProt O42275).
T1 construct: purchased Sigma, St. Louis, MO, USA
Nature of the assay: biochemical. As to conditions: mean ± SD, n = three experiments; 25 °C, PBS pH 7.4, substrate ATCh 40 μM.

Another assay has as its target T2, BChE from equine serum (Equus caballus, UniProt P81908).
T2 construct: BChE (from equine serum); purchased Sigma, St. Louis, MO, USA; host or cells: equine serum
Nature of the assay: In vitro BChE inhibition, modified Ellman's method. Particulars: for SI (index selectivity) = IC50 (AChE)/IC50 (BChE): higher value = higher selectivity to BChE. It counts as biochemical. A general note: In Ellman's method for cholinesterases, released thiocholine reacts with DTNB.

The term IC50 denotes the point on the concentration scale where inhibition reaches its midpoint. A higher IC50 goes with weaker potency.

T1 sequence (O42275 24-633): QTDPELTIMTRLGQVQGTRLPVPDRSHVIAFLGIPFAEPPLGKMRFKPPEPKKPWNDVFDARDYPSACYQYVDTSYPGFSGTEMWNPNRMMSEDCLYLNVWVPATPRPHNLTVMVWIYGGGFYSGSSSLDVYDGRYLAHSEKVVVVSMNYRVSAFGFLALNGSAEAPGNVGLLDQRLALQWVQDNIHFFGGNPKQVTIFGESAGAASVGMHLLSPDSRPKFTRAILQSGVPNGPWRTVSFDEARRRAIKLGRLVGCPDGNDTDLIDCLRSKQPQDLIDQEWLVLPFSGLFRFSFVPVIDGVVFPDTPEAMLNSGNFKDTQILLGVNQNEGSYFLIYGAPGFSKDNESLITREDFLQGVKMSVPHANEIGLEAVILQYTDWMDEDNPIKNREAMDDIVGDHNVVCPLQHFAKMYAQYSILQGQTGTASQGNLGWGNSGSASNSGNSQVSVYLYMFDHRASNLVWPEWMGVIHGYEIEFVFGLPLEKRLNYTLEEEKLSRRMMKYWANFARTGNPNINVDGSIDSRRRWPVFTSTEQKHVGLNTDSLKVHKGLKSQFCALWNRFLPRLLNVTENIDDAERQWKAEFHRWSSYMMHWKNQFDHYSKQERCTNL
T2 sequence (P81908 whole entry): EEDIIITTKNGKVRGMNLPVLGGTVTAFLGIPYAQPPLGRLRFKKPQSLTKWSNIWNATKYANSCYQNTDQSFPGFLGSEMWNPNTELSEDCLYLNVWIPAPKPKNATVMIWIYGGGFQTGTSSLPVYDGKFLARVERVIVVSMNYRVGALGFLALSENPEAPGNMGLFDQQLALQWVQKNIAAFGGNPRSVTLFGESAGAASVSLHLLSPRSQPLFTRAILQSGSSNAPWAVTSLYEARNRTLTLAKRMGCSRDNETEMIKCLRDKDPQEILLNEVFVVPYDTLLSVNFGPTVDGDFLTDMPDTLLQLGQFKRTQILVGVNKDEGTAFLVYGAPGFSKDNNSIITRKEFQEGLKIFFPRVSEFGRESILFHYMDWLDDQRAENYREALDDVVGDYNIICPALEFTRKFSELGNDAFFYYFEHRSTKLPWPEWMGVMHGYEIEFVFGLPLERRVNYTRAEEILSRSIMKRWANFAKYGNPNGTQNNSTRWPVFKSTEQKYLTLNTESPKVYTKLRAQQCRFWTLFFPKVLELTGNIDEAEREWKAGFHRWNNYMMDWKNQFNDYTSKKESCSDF

As for `COC(=O)N(C)C(C)C(=O)c1cccc(Cl)c1` (stereo not drawn) [Compound 5, Methyl (1-(3-chlorophenyl)-1-oxopropan-2-yl)(methyl)carbamate], half-maximal inhibition on AChE from electric eel (IC50) required 330 ± 42.1 µM. On BChE from equine serum, it took 113.6 ± 0.29 µM to reach half-maximal inhibition (IC50) and the “SI (index selectivity) = IC50 (AChE)/IC50 (BChE)” value (shortened to “SI (index selectivity) = IC50”) worked out at 2.90.

On AChE from electric eel, `CC(C(=O)c1cccc(Cl)c1)N(C)C(=O)Oc1ccccc1` (stereo not drawn) [Compound 16, Phenyl (1-(3-chlorophenyl)-1-oxopropan-2-yl)(methyl)carbamate] displayed an IC50 of 109 ± 1.1 µM. In addition, on BChE from equine serum, the half-maximal inhibitory concentration (IC50) was 14.81 ± 0.01 µM and the “SI (index selectivity) = IC50” value is listed as 7.35.

Take `COc1ccc(C(=O)C(C)N(C)C(=O)Oc2ccccc2)cc1` (stereo not drawn) [Compound 17, Phenyl (1-(4-methoxyphenyl)-1-oxopropan-2-yl)(methyl)carbamate]: the half-inhibitory concentration (IC50) against AChE from electric eel was found to be 90.21 ± 0.73 µM. Moreover, at BChE from equine serum, the midpoint of inhibition, the IC50, lay at 106 ± 1.94 µM and the “SI (index selectivity) = IC50” value was determined as 0.85.

Regarding `CC(C(=O)c1ccc(Cl)cc1)N(C)C(=O)Oc1ccccc1` (stereo not drawn) [Compound 19, Phenyl (1-(4-chlorophenyl)-1-oxopropan-2-yl)(methyl)carbamate], the half-inhibitory concentration (IC50) against AChE from electric eel was 44.2 ± 2.35 µM; at BChE from equine serum, 38.96 ± 0.28 µM. Moreover, the “SI (index selectivity) = IC50” value on BChE from equine serum is recorded as 1.14.

The compound `CC(C(=O)c1ccc(Cl)c2ccccc12)N(C)C(=O)OCc1ccccc1` (stereo not drawn) [Compound 40, Benzyl (1-(4-chloronaphthalen-1-yl)-1-oxopropan-2-yl)(methyl)carbamate] yielded a concentration for half-maximal inhibition (IC50) at AChE from electric eel of 103.3 ± 0.41 µM. Besides, at BChE from equine serum, the midpoint of inhibition, the IC50, lay at 42.75 ± 0.31 µM and the “SI (index selectivity) = IC50” value is given as 2.42.

As to `CCC(C(=O)c1ccccc1)N(CC)C(=O)OCc1ccccc1` (stereo not drawn) [Compound 25, Benzyl ethyl(1-oxo-1-phenylbutan-2-yl)carbamate], half-maximal inhibition on AChE from electric eel (IC50) was put at 119 ± 1.23 µM. On BChE from equine serum, the IC50 is 21.3 ± 0.48 µM and the “SI (index selectivity) = IC50” value is 5.61.

For the compound `CCCC(C(=O)c1ccccc1)N(C)C(=O)Oc1ccccc1` (stereo not drawn) [Compound 14, Phenyl methyl(1-oxo-1-phenylpentan-2-yl)carbamate], the IC50 against AChE from electric eel is 97.97 ± 0.36 µM. Moreover, on BChE from equine serum, the IC50 is 16.55 ± 0.13 µM and the “SI (index selectivity) = IC50” value is recorded as 5.92.

At AChE from electric eel, `CCN(C(=O)OCc1ccccc1)C(C)C(=O)c1ccccc1` (stereo not drawn) [Compound 23, Benzyl ethyl(1-oxo-1-phenylpropan-2-yl)carbamate] registered a half-inhibitory concentration (IC50) of 158.4 ± 0.87 µM. For the same compound, on BChE from equine serum, it took 11.37 ± 0.05 µM to reach half-maximal inhibition (IC50) and the “SI (index selectivity) = IC50” value worked out at 13.93.

Source of the values: article PMC6479915, “Novel Benzene-Based Carbamates for AChE/BChE Inhibition: Synthesis and Ligand/Structure-Oriented SAR Study” (International Journal of Molecular Sciences, 2019).
